Reference: patent US20060148732A1, “Inhibition of NF-kappaB by triterpene compositions” (priority 2000, published 2006)

Tests used:
[1] = Stability in solution during purification; type: physicochemical; details: dilute acid solutions vs water at 40° C.
Description: The fraction D (45% D1) from the PFP Prep column was first fractionated on a Waters C-18 column (25×100 mm). The mobile phase was 61% methanol in water with 0.1% TFA. […] A sample of D1 with 100% chromatographic purity (FIG. 35) was produced by further fractionation of the impure D1 on YMC C18-Aq column with 33% acetonitrile/water with 0.1% TFA as the mobile phase. […] Therefore, 0.1% TFA was included in solvents during the purification of D1.

[2] = system: mitochondrial fraction of Jurkat cells; test: Cytochrome c release in a cell free system; type: biochemical, human; details: isolated mitochondria
Description: Isolation of the Submitochondrial Fraction. Jurkat cells (1.5-2.0×10^7) were suspended in 1 ml sucrose buffer (250 mM sucrose in 30 mM Tris-HCl pH 7.4) and transferred into an N2 cavitation chamber (PARR Instruments Company, Moline, Ill.). The cells were subjected to N2 cavitation (300 psi for 5 min) as per the manufacturer's instructions. Under these conditions most of the cell membrane was disrupted with no change in the mitochondrial respiratory activity. Next, DNA and the nuclear fraction were removed by centrifugation (1500 g, 30 sec). The supernatant was further centrifuged (16000 g, 10 min) and the pellet was used as the submitochondrial fraction.
To observe if monoterpene/triterpenoid saponins directly affected mitochondria to induce apoptosis, experiments were carried out using avicin G in a cell free system. Mitochondria were isolated from Jurkat cells by the N2 cavitation method.

[3] = system: IκBα in Jurkat cells; test: Western blot of IκBα degradation; type: cell-based, human; details: 2 μg/ml 16 hours, TNF 1 nM
Description: (§1) Western Blot Analysis. Cytoplasmic and nuclear extracts of Jurkat cells treated with monoterpene/triterpene glycoside G1 were used to study the degradation of IκB and nuclear translocation of the p65 subunit of NF-κB respectively. Then, 50 μg of the cytoplasmic or nuclear protein were resolved on a 9% SDS-polyacrylamide gel and electrotransferred onto a nitrocellulose membrane. The membranes were probed with rabbit anti-IκBα or rabbit anti-p65 antibody (Santa Cruz, Calif.) followed with anti-rabbit antibody conjugated to horseradish peroxidase (HRPO). Protein bands were detected by chemiluminescence (ECL, Amersham).

[4] = system: p65 subunit of NF-κB in Jurkat cells; test: Western blot of nuclear translocation of p65; type: cell-based, human; details: 2 μg/ml 16 hours, TNF 1 nM
Description: as §1

[5] = biological target: T1, NF-κB (Homo sapiens, UniProt P19838+Q04206); test: In vitro NF-κB DNA binding (EMSA on extracts); type: biochemical
T1 construct: endogenous in cells; host or cells: Jurkat cells stimulated with TNF; nuclear extract
T1 sequence (Q04206 whole entry): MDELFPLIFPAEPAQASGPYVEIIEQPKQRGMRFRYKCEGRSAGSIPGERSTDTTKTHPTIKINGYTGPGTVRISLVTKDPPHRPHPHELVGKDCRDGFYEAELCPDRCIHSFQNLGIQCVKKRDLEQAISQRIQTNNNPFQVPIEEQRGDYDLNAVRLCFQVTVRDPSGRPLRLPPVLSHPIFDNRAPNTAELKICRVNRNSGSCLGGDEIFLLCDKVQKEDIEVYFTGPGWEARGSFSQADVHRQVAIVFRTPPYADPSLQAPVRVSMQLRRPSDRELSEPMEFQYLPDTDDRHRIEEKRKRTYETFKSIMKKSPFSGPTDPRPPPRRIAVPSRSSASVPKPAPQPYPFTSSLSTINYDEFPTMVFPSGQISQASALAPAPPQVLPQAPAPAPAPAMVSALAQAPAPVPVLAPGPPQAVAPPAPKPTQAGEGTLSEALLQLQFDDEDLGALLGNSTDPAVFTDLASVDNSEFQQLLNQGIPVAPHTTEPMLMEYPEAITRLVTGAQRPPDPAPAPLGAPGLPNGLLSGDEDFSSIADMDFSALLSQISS
T1 sequence (P19838 1-433 limits assumed): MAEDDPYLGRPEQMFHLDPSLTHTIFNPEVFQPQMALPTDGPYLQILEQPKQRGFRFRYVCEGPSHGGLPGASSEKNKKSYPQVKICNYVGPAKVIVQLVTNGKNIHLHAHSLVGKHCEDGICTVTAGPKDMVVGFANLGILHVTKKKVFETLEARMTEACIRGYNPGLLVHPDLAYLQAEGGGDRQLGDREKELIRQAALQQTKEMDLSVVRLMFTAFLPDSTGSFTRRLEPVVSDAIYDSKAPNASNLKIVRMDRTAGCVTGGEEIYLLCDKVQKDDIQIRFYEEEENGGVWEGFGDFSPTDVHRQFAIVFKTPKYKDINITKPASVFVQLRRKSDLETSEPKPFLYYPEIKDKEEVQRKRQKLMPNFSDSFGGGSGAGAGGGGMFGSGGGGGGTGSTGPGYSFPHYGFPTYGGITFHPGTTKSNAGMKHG
Description: (underline indicates NF-κB binding sites) for 15 min at 37° C. The incubation mixture included 3 μg of poly (dI:dC) in a binding buffer (25 mM HEPES, pH 7.9, 0.5 mM EDTA, 0.5 mM DTT, 1% NP-40, 5% glycerol, 50 mM NaCl). The DNA-protein complex was separated from the free oligonucleotide on a 7.5% polyacrylamide gel. The specificity of NF-κB-DNA binding was examined by competition with a double stranded mutated oligonucleotide, unlabeled oligonucleotide and by supershift of the band by anti-p65 antibody. The radioactive bands from dried gels were visualized on a PhosphoImager (Molecular Dynamics, Sunnyvale, Calif.) and quantitated using ImageQuant Software.
Monoterpene/triterpene glycoside G Inhibits NF-κB-DNA Binding. […] Therefore, the inventors analyzed the effect of monoterpene/triterpene glycoside G1 on the ability of active NF-κB to bind to DNA in a cell-free system. Nuclear extracts from TNF-stimulated cells were incubated with increasing concentrations of monoterpene/triterpene glycoside G1. […] Deoxycholate (DOC) is known to dissociate NF-κB from IκB, thereby making it available in an active nuclear form.

[6] = system: pGL3-NF-κB in Jurkat cells; test: NF-κB dependent luciferase gene expression; type: cell-based, human; details: transfected Jurkat; pretreatment
Description: Transfection and Assay of Luciferase Activity. Jurkat cells were transfected with pGL3-NF-κB by electroporation. The cells were then treated with monoterpene/triterpene glycoside G1 (1 μg/ml) for 16 h. NF-κB was activated using LPS (100 ng/ml), PMA (5 ng/ml), or TNF (1 nM). Luciferase activity was measured using the luciferase assay kit (Promega, Madison, Wis.) as per the manufacturer's instructions.

| SMILES | stability in solution [1] | peak of cytochrome c release ([2]; 2 μg/ml) [min] | start of cytochrome c release ([2]; 2 μg/ml) | concentration achieving most of the cytochrome c release ([2]; 10 min) [µg/mL] | pattern of IκB degradation [3] | nuclear translocation of p65 subunit [4] | DNA binding of DOC (0.8%) activated NF-κB ([5]; cytoplasmic extracts of treated cells) | binding of NF-κB to DNA ([5]; nuclear extracts from TNF-stimulated cells, 30 min at 37° C.) | luciferase activity induced by LPS, PMA or TNF [6] |
| --- | --- | --- | --- | --- | --- | --- | --- | --- | --- |
| C=C[C@](C)(O)CC/C=C(\CO)C(=O)O[C@H]1[C@H](O)[C@@H](O)[C@H](O[C@@](C)(C=C)CC/C=C(\CO)C(=O)O[C@H]2C[C@]3(C(=O)O[C@@H]4O[C@H](CO)[C@@H](O)[C@H](O)[C@H]4O[C@@H]4O[C@@H](C)[C@H](O[C@@H]5O[C@@H](CO)[C@H](O)[C@H]5O)[C@@H](O[C@@H]5O[C@H](CO)[C@@H](O)[C@H](O)[C@H]5O)[C@H]4O)[C@H](O)C[C@]4(C)C(=CC[C@@H]5[C@@]6(C)CC[C@H](O[C@@H]7O[C@H](CO[C@@H]8O[C@H](C)[C@H](O)[C@H](O)[C@H]8O[C@@H]8OC[C@@H](O)[C@H](O)[C@H]8O)[C@@H](O)[C@H](O)[C@H]7NC(C)=O)C(C)(C)[C@@H]6CC[C@]54C)[C@@H]3CC2(C)C)O[C@@H]1C [Fraction D1] | more stable in dilute acid solutions than in water |  |  |  |  |  |  |  |  |
| C=C[C@](C)(O)CC/C=C(\C)C(=O)O[C@H]1[C@H](O)[C@@H](O)[C@H](O[C@@](C)(C=C)CC/C=C(\CO)C(=O)O[C@H]2C[C@]3(C(=O)O[C@@H]4O[C@H](CO)[C@@H](O)[C@H](O)[C@H]4O[C@@H]4O[C@@H](C)[C@H](O[C@@H]5O[C@@H](CO)[C@H](O)[C@H]5O)[C@@H](O[C@@H]5O[C@H](CO)[C@@H](O)[C@H](O)[C@H]5O)[C@H]4O)[C@H](O)C[C@]4(C)C(=CC[C@@H]5[C@@]6(C)CC[C@H](O[C@@H]7O[C@H](CO[C@@H]8O[C@H](C)[C@H](O)[C@H](O)[C@H]8O[C@@H]8OC[C@@H](O)[C@H](O)[C@H]8O)[C@@H](O)[C@H](O)[C@H]7NC(C)=O)C(C)(C)[C@@H]6CC[C@]54C)[C@@H]3CC2(C)C)O[C@@H]1C [Fraction G1] |  | 5 to 10 | a minute | 0.5 to 2.0 | no difference | slows down nuclear translocation of the p65 subunit considerably | decreased DNA binding | inhibited the binding of NF-κB to DNA in a dose-dependent manner | significantly inhibited |
